{"source": "patent US9957265B2", "about": "“N-(2-cyano heterocyclyl) pyrazolo pyridones as janus kinase inhibitors” (Merck Sharp & Dohme Corp., priority 2013, dated 2018)", "key": {"JAK1": {"target": "JAK1 (Homo sapiens (Human), UniProt P23458)", "sequence (P23458 875-1153)": "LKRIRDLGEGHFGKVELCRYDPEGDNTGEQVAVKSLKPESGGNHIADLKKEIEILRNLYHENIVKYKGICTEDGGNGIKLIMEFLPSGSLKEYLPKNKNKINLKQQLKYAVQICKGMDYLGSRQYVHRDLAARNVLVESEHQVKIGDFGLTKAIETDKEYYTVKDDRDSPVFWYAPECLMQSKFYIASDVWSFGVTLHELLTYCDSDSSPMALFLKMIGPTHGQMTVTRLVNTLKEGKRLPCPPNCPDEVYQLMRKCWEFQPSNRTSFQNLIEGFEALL", "test": "Jak Biochemical HTRF Assay (JAK1)", "settings": "recombinant GST-tagged catalytic domain, [ATP] 31.8 μM, unit not given (compound concentrations tested given in nM)", "description": "Jak Biochemical HTRF Assay Protocol\nSubsequent reagent additions employed an Agilent Bravo."}, "JAK2": {"target": "JAK2 (Homo sapiens (Human), UniProt O60674)", "sequence (O60674 849-1124)": "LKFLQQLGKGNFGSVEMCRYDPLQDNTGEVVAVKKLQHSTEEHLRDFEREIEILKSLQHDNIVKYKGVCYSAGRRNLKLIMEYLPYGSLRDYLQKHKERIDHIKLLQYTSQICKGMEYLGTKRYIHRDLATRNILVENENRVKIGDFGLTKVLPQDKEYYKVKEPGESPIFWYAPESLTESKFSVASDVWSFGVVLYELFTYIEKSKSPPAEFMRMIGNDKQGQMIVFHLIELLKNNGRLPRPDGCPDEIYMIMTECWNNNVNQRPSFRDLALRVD", "test": "Jak Biochemical HTRF Assay (JAK2)"}, "[1]": {"settings": "JAK2 IC50, recombinant GST-tagged catalytic domain, [ATP] 8.5 μM, unit not given (compound concentrations tested given in nM)"}}, "note": "Where two headings read alike, the source gives them in different places.", "data": [{"smiles": "CC1CCCN1C(c1ccc(Nc2nn([C@H]3COCC[C@@H]3C#N)c3cc[nH]c(=O)c23)cc1)C(F)(F)F", "note": "(single isomer, unassigned) [Example 1-88, (3R,4S)-3-{4-oxo-3-[(4-{(1S or 1R)-2,2,2-trifluoro-1-[(2S or 2R)-2-methylpyrrolidin-1-yl]ethyl}phenyl)amino]-4,5-dihydro-1H-pyrazolo[4,3-c]pyridin-1-yl}tetrahydro-2H-pyran-4-carbonitrile]", "values": [{"measurement": "IC50", "setting": "JAK1", "value": 0.11, "unit": "nM"}, {"measurement": "IC50", "setting": "JAK2; [1]", "value": 0.09, "unit": "nM"}]}, {"smiles": "CC1CCCN1C(c1ccc(Nc2nn([C@H]3COCC[C@@H]3C#N)c3cc[nH]c(=O)c23)cc1)C(F)(F)F", "note": "(single isomer, unassigned) [Example 1-89, (3R,4S)-3-{4-oxo-3-[(4-{(1R or 1S)-2,2,2-trifluoro-1-[(2R or 2S)-2-methylpyrrolidin-1-yl]ethyl}phenyl)amino]-4,5-dihydro-1H-pyrazolo[4,3-c]pyridin-1-yl}tetrahydro-2H-pyran-4-carbonitrile]", "values": [{"measurement": "IC50", "setting": "JAK1", "value": 0.15, "unit": "nM"}, {"measurement": "IC50", "setting": "JAK2; [1]", "value": 0.14, "unit": "nM"}]}, {"smiles": "CC(C)CNC(c1ccc(Nc2nn([C@H]3COCC[C@@H]3C#N)c3cc[nH]c(=O)c23)cc1)C(F)(F)F", "note": "(single isomer, unassigned) [Example 1-90, (3R,4S)-3-{4-oxo-3-[(4-{(1S or 1R)-2,2,2-trifluoro-1-[(2-methylpropyl)amino]ethyl}phenyl)amino]-4,5-dihydro-1H-pyrazolo[4,3-c]pyridin-1-yl}tetrahydro-2H-pyran-4-carbonitrile]", "values": [{"measurement": "IC50", "setting": "JAK1", "value": 0.21, "unit": "nM"}, {"measurement": "IC50", "setting": "JAK2; [1]", "value": 0.4, "unit": "nM"}]}, {"smiles": "CC(C)CNC(c1ccc(Nc2nn([C@H]3COCC[C@@H]3C#N)c3cc[nH]c(=O)c23)cc1)C(F)(F)F", "note": "(single isomer, unassigned) [Example 1-91, (3R,4S)-3-{4-oxo-3-[(4-{(1R or 1S)-2,2,2-trifluoro-1-[(2-methylpropyl)amino]ethyl}phenyl)amino]-4,5-dihydro-1H-pyrazolo[4,3-c]pyridin-1-yl}tetrahydro-2H-pyran-4-carbonitrile]", "values": [{"measurement": "IC50", "setting": "JAK1", "value": 0.17, "unit": "nM"}, {"measurement": "IC50", "setting": "JAK2; [1]", "value": 0.21, "unit": "nM"}]}, {"smiles": "N#C[C@H]1CCOC[C@@H]1n1nc(Nc2ccc(C(NC3CCC3)C(F)(F)F)cc2)c2c(=O)[nH]ccc21", "note": "(single isomer, unassigned) [Example 1-92, (3R,4S)-3-[3-({4-[(1S or 1R)-1-(cyclobutylamino)-2,2,2-trifluoroethyl]phenyl}amino)-4-oxo-4,5-dihydro-1H-pyrazolo[4,3-c]pyridin-1-yl]tetrahydro-2H-pyran-4-carbonitrile]", "values": [{"measurement": "IC50", "setting": "JAK1", "value": 0.13, "unit": "nM"}, {"measurement": "IC50", "setting": "JAK2; [1]", "value": 0.19, "unit": "nM"}]}, {"smiles": "N#C[C@H]1CCOC[C@@H]1n1nc(Nc2ccc(C(NC3CCC3)C(F)(F)F)cc2)c2c(=O)[nH]ccc21", "note": "(single isomer, unassigned) [Example 1-93, (3R,4S)-3-[3-({4-[(1R or 1S)-1-(cyclobutylamino)-2,2,2-trifluoroethyl]phenyl}amino)-4-oxo-4,5-dihydro-1H-pyrazolo[4,3-c]pyridin-1-yl]tetrahydro-2H-pyran-4-carbonitrile]", "values": [{"measurement": "IC50", "setting": "JAK1", "value": 0.09, "unit": "nM"}, {"measurement": "IC50", "setting": "JAK2; [1]", "value": 0.11, "unit": "nM"}]}, {"smiles": "N#C[C@H]1CCOCC1n1nc(Nc2ccc(C(O)(c3ccncc3)C(F)(F)F)cc2)c2c(=O)[nH]ccc21", "note": "(single isomer, unassigned) [Example 1-94, (3R,4S)-3-(4-oxo-3-((4-((S or R)-2,2,2-trifluoro-1-hydroxy-1-(pyridin-4-yl)ethyl)phenyl)amino)-4,5-dihydro-1H-pyrazolo[4,3-c]pyridin-1-yl)tetrahydro-2H-pyran-4-carbonitrile]", "values": [{"measurement": "IC50", "setting": "JAK1", "value": 0.08, "unit": "nM"}, {"measurement": "IC50", "setting": "JAK2; [1]", "value": 0.15, "unit": "nM"}]}, {"smiles": "N#C[C@H]1CCOCC1n1nc(Nc2ccc(C(O)(c3ccncc3)C(F)(F)F)cc2)c2c(=O)[nH]ccc21", "note": "(single isomer, unassigned) [Example 1-95, (3R,4S)-3-(4-oxo-3-((4-((S or R)-2,2,2-trifluoro-1-hydroxy-1-(pyridin-4-yl)ethyl)phenyl)amino)-4,5-dihydro-1H-pyrazolo[4,3-c]pyridin-1-yl)tetrahydro-2H-pyran-4-carbonitrile]", "values": [{"measurement": "IC50", "setting": "JAK1", "value": 0.06, "unit": "nM"}, {"measurement": "IC50", "setting": "JAK2; [1]", "value": 0.09, "unit": "nM"}]}, {"smiles": "N#C[C@H]1CCOCC1n1nc(Nc2ccc(C(O)(c3ccccn3)C(F)(F)F)cc2)c2c(=O)[nH]ccc21", "note": "(single isomer, unassigned) [Example 1-96, (3R,4S)-3-(4-oxo-3-((4-((S or R)-2,2,2-trifluoro-1-hydroxy-1-(pyridin-2-yl)ethyl)phenyl)amino)-4,5-dihydro-1H-pyrazolo[4,3-c]pyridin-1-yl)tetrahydro-2H-pyran-4-carbonitrile]", "values": [{"measurement": "IC50", "setting": "JAK1", "value": 0.07, "unit": "nM"}, {"measurement": "IC50", "setting": "JAK2; [1]", "value": 0.15, "unit": "nM"}]}, {"smiles": "N#C[C@H]1CCOCC1n1nc(Nc2ccc(C(O)(c3ccccn3)C(F)(F)F)cc2)c2c(=O)[nH]ccc21", "note": "(single isomer, unassigned) [Example 1-97, (3R,4S)-3-(4-oxo-3-((4-((S or R)-2,2,2-trifluoro-1-hydroxy-1-(pyridin-2-yl)ethyl)phenyl)amino)-4,5-dihydro-1H-pyrazolo[4,3-c]pyridin-1-yl)tetrahydro-2H-pyran-4-carbonitrile]", "values": [{"measurement": "IC50", "setting": "JAK1", "value": 0.14, "unit": "nM"}, {"measurement": "IC50", "setting": "JAK2; [1]", "value": 0.18, "unit": "nM"}]}, {"smiles": "CC(C)NC1(C)C(=O)Nc2cc(Nc3nn(C4COCC[C@@H]4C#N)c4cc[nH]c(=O)c34)ccc21", "note": "(single isomer, unassigned) [Example 1-100, (3R,4S)-3-[3-({(3R or 3S)-3-methyl-3-[(1-methylethyl)amino]-2-oxo-2,3-dihydro-1H-indol-6-yl}amino)-4-oxo-4,5-dihydro-1H-pyrazolo[4,3-c]pyridin-1-yl] tetrahydro-2H-pyran-4-carbonitrile]", "values": [{"measurement": "IC50", "setting": "JAK1", "value": 0.06, "unit": "nM"}, {"measurement": "IC50", "setting": "JAK2; [1]", "value": 0.05, "unit": "nM"}]}, {"smiles": "CC(C)NC1(C)C(=O)Nc2cc(Nc3nn(C4COCC[C@@H]4C#N)c4cc[nH]c(=O)c34)ccc21", "note": "(single isomer, unassigned) [Example 1-101, (3R,4S)-3-[3-({(3S or 3R)-3-methyl-3-[(1-methylethyl)amino]-2-oxo-2,3-dihydro-1H-indol-6-yl}amino)-4-oxo-4,5-dihydro-1H-pyrazolo[4,3-c]pyridin-1-yl] tetrahydro-2H-pyran-4-carbonitrile]", "values": [{"measurement": "IC50", "setting": "JAK1", "value": 0.07, "unit": "nM"}, {"measurement": "IC50", "setting": "JAK2; read-out: JAK2 IC50, recombinant GST-tagged catalytic domain, [ATP] 8.5 μM, unit not given (compound concentrations tested given in nM)", "value": 0.05, "unit": "nM"}]}, {"smiles": "CC(O)(c1ccc(Nc2nn([C@H]3COCC[C@@H]3C#N)c3cc[nH]c(=O)c23)cc1)C(F)(F)F", "note": "(single isomer, unassigned) [Example 2-3, (3R,4S)-3-[4-oxo-3-({4-[(1R or 1S)-2,2,2-trifluoro-1-hydroxy-1-methylethyl]phenyl}amino)-4,5-dihydro-1H-pyrazolo[4,3-c]pyridin-1-yl]tetrahydro-2H-pyran-4-carbonitrile]", "values": [{"measurement": "IC50", "setting": "JAK1", "value": 0.06, "unit": "nM"}, {"measurement": "IC50", "setting": "JAK2; [1]", "value": 0.39, "unit": "nM"}]}, {"smiles": "CC(O)(c1ccc(Nc2nn([C@H]3COCC[C@@H]3C#N)c3cc[nH]c(=O)c23)cc1)C(F)(F)F", "note": "(single isomer, unassigned) [Example 2-4, (3R,4S)-3-[4-oxo-3-({4-[(1R or 1S)-2,2,2-trifluoro-1-hydroxy-1-methylethyl]phenyl}amino)-4,5-dihydro-1H-pyrazolo[4,3-c]pyridin-1-yl]tetrahydro-2H-pyran-4-carbonitrile]", "values": [{"measurement": "IC50", "setting": "JAK1", "value": 0.05, "unit": "nM"}, {"measurement": "IC50", "setting": "JAK2; [1]", "value": 0.27, "unit": "nM"}]}, {"smiles": "N#C[C@H]1CCOC[C@@H]1n1nc(Nc2ccc(C(N3CCSCC3)C(F)(F)F)cc2)c2c(=O)[nH]ccc21", "note": "(single isomer, unassigned) [Example 2-5, (3R,4S)-3-[4-oxo-3-({4-[(1S or 1R)-2,2,2-trifluoro-1-thiomorpholin-4-ylethyl]phenyl}amino)-4,5-dihydro-1H-pyrazolo[4,3-c]pyridin-1-yl]tetrahydro-2H-pyran-4-carbonitrile]", "values": [{"measurement": "IC50", "setting": "JAK1", "value": 0.14, "unit": "nM"}, {"measurement": "IC50", "setting": "JAK2; [1]", "value": 0.15, "unit": "nM"}]}]}
